Data on two molecules can be found in patent publication US20230390273A1, “4-PHENYL-TETRAHYDROPYRIDINE DERIVATIVES FOR TREATING HEARING DISEASES” (CILCARE DEV, priority 2021, published 2023).

Where a name gives a salt, the structure may show the parent alone. Read-outs that look alike come from different tables or passages of the source.

Data set [1] deals with synaptic ribbons in inner hair cells. In words: Ribbon synapse immunostaining and counting in cochlea, immediate treatment (Example 6). The format is in vivo, male Wistar rats. Particulars: 2 hours and 8 days post-noise; for Number of pre-synaptic elements CtBP2 per IHC: 25 kHz and 32 kHz; for Number of pre-synaptic elements CtBP2 per IHC / Number of colocalized ribbons per IHC: vs traumatized vehicle group; for Number of colocalized ribbons per IHC: 25 kHz, paliroden 300 μg/ear, xaliproden 150 μg/ear; for Synapse loss in the inner hair cells: regions coding high frequency sounds. As to the method:
At T+28DAYS, after DPOAE/ABR measures, 10 cochleae (all eight (8) left cochleae and two (2) right cochleae taken randomly) per group were rapidly sampled and immediately fixed by PFA perfusion (through the round and oval windows with PFA 4% after creating a small hole at the apex) in order to performed ribbon synapse immunostaining and analysis. Cochleae were fixed for 1 hour in a 4% PFA solution and decalcified in undiluted RDO (10 mL/cochlea for a minimum of 2 hours). The membranous and sensory spiral containing the organ of Corti are dissected out as a flat surface preparation under a dissecting microscope and immunolabelled with appropriate antibodies: • Vglut3 (Vglut3-Guinea Pig IgG; #135 204, Synaptic systems and Anti-Guinea Pig IgG (H+L), #A21450; Thermo Fisher Scientific 647 nm Far-Red) to stain inner hair cell bodies (vesicular glutamate transporter). • Homer (Homer-Rabbit IgG; #GTX103278; Genetex and Anti-Rabbit IgG (H+L) #A11008 Thermo Fisher Scientific 568 nm Red) to stain dendritic proteins of auditory nerve fibers connecting to IHC (post-synaptic). • CtBP2 (CtBP2-Mouse-IgG1; #612044; BD Transduction Laboratories and Anti-Mouse IgG1, #A21121, Thermo Fisher Scientific 488 Green) to stain the ribeye protein as pre-synaptic marker in IHC. • Phalloidin (Alexa Fluor™ Plus 405 Phalloidin; #A30104; Thermo Fisher Scientific 405 Blue).
Images were acquired on a confocal microscope and the slides were analyzed to i) evaluate by visual observation the presence of OHC (outer hair cells) and IHC (inner hair cells) (based on nuclei staining with CtBP2 and HC cell body staining with phalloidin) and ii) count the number of synaptic ribbons in selected inner hair cells in cochlea regions coding sound of selected frequency (16 kHz, 25 kHz and 32 kHz).
The number of pre- (CtBP2) and post-synaptic (Homer) labeled spots was counted using Imaris software in 3 dimensions for each image. Co-localization of pre- and post-synaptic elements was defined as a distance of maximum […] between CtBP2- and Homer-labeled spots, using an in-house Matlab program to calculate the distances between CtBP2 and Homer labels from the x, y, and z coordinates.

Data set [2] in a line: Plasma and inner ear fluid exposure after single oral gavage (Example 1). The format is in vivo, male Wistar rats. Particulars: for concentration at 1 h / concentration at 2 h / concentration at 4 h / concentration at 6 h / concentration at 8 h / concentration at 24 h: male, Wistar; for concentration at 1 h: T0 + 1 hour; for concentration at 2 h: T0 + 2 hours; for concentration at 4 h: T0 + 4 hours; for concentration at 6 h: T0 + 6 hours; for concentration at 8 h: T0 + 8 hours. As to the method: Two compositions were prepared: composition A and composition B.
Composition A is an aqueous solution comprising: • 6 mg/mL (free base equivalent) of fumarate salt of 1-[2-(4-biphenylyl)ethyl]-4-(3-trifluoromethylphenyl)-1,2,3,6-tetrahydropyridine (=paliroden fumarate), and • 0.6% w/v of methylcellulose with respect to the total volume of the aqueous solution.
Composition B is an aqueous solution comprising: • 4 mg/mL (free base equivalent) of hydrochloride salt of 1-[2-(2-naphthyl)ethyl]-4-(3-trifluoromethylphenyl)-1,2,3,6-tetrahydropyridine (=xaliproden hydrochloride), and • 10% w/v of arabic gum with respect to the total mass of the aqueous solution.
Composition A and composition B were administered to male Wistar rats (5 animals per active agent and timepoint), as described below.
Composition A was administered to 15 male Wistar rats, once, at time TO, via oral injection by gavage, at a dose of 5 mL of composition A per kilogram of the animal, i.e. a dose of 30 mg of paliroden fumarate per kilogram of the animal. The concentration of paliroden in rats plasma and in rats inner ear fluid (IEF) was measured at 6 timepoints, 5 rats being used at each timepoint for the concentration measurements (in the plasma and optionally in the IEF). The timepoints are T0+1 hour, T0+2 hours, T0+4 hours, T0+6 hours, T0+8 hours and T0+24 hours for the concentration measurement in the rats plasma. The timepoints are T0+2 hours, T0+4 hours and T0+24 hours for the concentration measurement in the rats inner ear fluid, as part of a terminal procedure including cochlea sampling and inner ear fluids collection from both ears of the rats. Bioanalytical methods were validated in both matrices (lithium heparin plasma and inner ear fluid) with a range of 0.25 to 500 ng/mL in plasma and 0.25 to 100 ng/mL in inner ear fluids.
Composition B was administered to 15 others male Wistar rats, once, at time T0, via oral injection by gavage, at a dose of 5 mL of composition B per kilogram of the animal, i.e. a dose of 20 mg of xaliproden hydrochloride per kilogram of the animal. The concentration of xaliproden in rats plasma and in rats inner ear fluid (IEF) was measured at 6 timepoints, 5 rats being used at each timepoint for the concentrations measurements (in the plasma and optionally in the IEF). The timepoints are T0+1 hour, T0+2 hours, T0+4 hours, T0+6 hours, T0+8 hours and T0+24 hours for the concentration measurement in the rats plasma. The timepoints are T0+2 hours, T0+4 hours and T0+24 hours for the concentration measurement in the rats inner ear fluid, as part of a terminal procedure including cochlea sampling and inner ear fluids collection from both ears of the rats. Bioanalytical methods were validated in both matrices (lithium heparin plasma and inner ear fluid) with a range of 0.25 to 500 ng/mL in plasma and 0.25 to 500 ng/mL in inner ear fluids.

[3] abbreviates: plasma, rat, single oral 30 mg/kg, read-out: Concentration of paliroden (fumarate salt), Plasma, Mean.
[4] abbreviates: rat inner ear fluid, single oral 30 mg/kg, read-out: Concentration of paliroden (fumarate salt), IEF, Mean.
Where [5] appears, read: plasma, rat, single oral 20 mg/kg, read-out: Concentration of xaliproden (hydrochloride salt), Plasma, Mean.
[6] abbreviates: rat inner ear fluid, single oral 20 mg/kg, read-out: Concentration of xaliproden (hydrochloride salt), IEF, Mean.

As for `FC(F)(F)c1cccc(C2=CCN(CCc3ccc(-c4ccccc4)cc3)CC2)c1` [paliroden (fumarate salt), 1-[2-(4-biphenylyl)ethyl]-4-(3-trifluoromethylphenyl)-1,2,3,6-tetrahydropyridine], in data set [1], the “Number of pre-synaptic elements CtBP2 per IHC” value was “increase”, the “Number of colocalized ribbons per IHC” value is listed as “increase” and the “Synapse loss in the inner hair cells” value was “tend to repair synapse loss”. In addition, in data set [2] (setting [3]), the concentration at 1 h came out at 35 ng/mL, the concentration at 2 h turned out to be 106 ng/mL, the concentration at 4 h came out at 3.1 ng/mL and the concentration at 6 h came to 4.4 ng/mL. Also, the concentration at 8 h in data set [2] (setting [3]) turned out to be 1.6 ng/mL. The concentration at 24 h in data set [2] (plasma, rat, single oral 30 mg/kg, T0 + 24 hours, read-out: Concentration of paliroden (fumarate salt), Plasma, Mean) was 1.7 ng/mL. In data set [2] (setting [4]), the concentration at 2 h was 10.9 ng/mL and the concentration at 4 h came to 2.6 ng/mL. In data set [2] (rat inner ear fluid, single oral 30 mg/kg, T0 + 24 hours), the “Concentration of paliroden (fumarate salt), IEF, Mean” value is “BLQ”.

With `FC(F)(F)c1cccc(C2=CCN(CCc3ccc4ccccc4c3)CC2)c1` [xaliproden (hydrochloride salt), 1-[2-(2-naphthyl)ethyl]-4-(3-trifluoromethylphenyl)-1,2,3,6-tetrahydropyridine], in data set [1], the “Number of pre-synaptic elements CtBP2 per IHC” value is on record as “increase”, the “Number of colocalized ribbons per IHC” value was “increase” and the “Synapse loss in the inner hair cells” value was “tend to repair synapse loss”. In addition, in data set [2] (setting [5]), the concentration at 1 h was 44.1 ng/mL, the concentration at 2 h was determined as 58 ng/mL, the concentration at 4 h is 25.1 ng/mL and the concentration at 6 h was found to be 28.4 ng/mL. The concentration at 8 h in data set [2] (setting [5]) amounted to 23.4 ng/mL. Besides, the concentration at 24 h in data set [2] (plasma, rat, single oral 20 mg/kg, T0 + 24 hours, read-out: Concentration of xaliproden (hydrochloride salt), Plasma, Mean) amounted to 44.1 ng/mL. For the same molecule, in data set [2] (setting [6]), the concentration at 2 h was determined as 19.4 ng/mL and the concentration at 4 h is 21.7 ng/mL. The concentration at 24 h in data set [2] (rat inner ear fluid, single oral 20 mg/kg, T0 + 24 hours, read-out: Concentration of xaliproden (hydrochloride salt), IEF, Mean) is 16 ng/mL.
